# Laboratory results from PubChem BioAssay AID248 (DTP/NCI, 2004).
# Values joined by “and” are separate entries in the source; they are usually repeats but may differ in a detail not shown here. Equal values may be shown once. Toxic doses and inconclusive results are not listed.
# Test system: L1210 leukemia ip in BDF1 mice, survival T/C
# Assay: NCI In Vivo Anticancer Drug Screen. Data for tumor model L1210 Leukemia (intraperitoneal) in B6D2F1 (BDF1) mice
# Settings: higher = longer survival
# In short: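 Survival endpoint. Drug-treated group vs vehicle group, expressed as T divided by C. Tumor passaged by transplantation.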
# [1] = endpoint: mean survival time, dose: 100.0 mg/kg/injection, schedule: Q01DX001 (ip), vehicle: carboxymethylcellulose (CMC)
# [2] = endpoint: mean survival time, dose: 200.0 mg/kg/injection, schedule: Q01DX001 (ip), vehicle: carboxymethylcellulose (CMC)
# [3] = endpoint: mean survival time, dose: 400.0 mg/kg/injection, schedule: Q01DX001 (ip), vehicle: carboxymethylcellulose (CMC)
# [4] = endpoint: mean survival time, dose: 200.0 mg/kg/injection, schedule: Q04DX003 (ip), vehicle: saline with Tween-80
# [5] = endpoint: mean survival time, dose: 100.0 mg/kg/injection, schedule: Q04DX003 (ip), vehicle: saline with Tween-80
# [6] = endpoint: mean survival time, dose: 100.0 mg/kg/injection, schedule: Q01DX009 (ip), vehicle: Klucel (hydroxypropylcellulose) (HPC)
# [7] = endpoint: mean survival time, dose: 100.0 mg/kg/injection, schedule: Q04DX003 (ip), vehicle: Klucel (hydroxypropylcellulose) (HPC)
# [8] = endpoint: mean survival time, dose: 200.0 mg/kg/injection, schedule: Q01DX009 (ip), vehicle: Klucel (hydroxypropylcellulose) (HPC)
# [9] = endpoint: mean survival time, dose: 200.0 mg/kg/injection, schedule: Q04DX003 (ip), vehicle: Klucel (hydroxypropylcellulose) (HPC)
# [10] = endpoint: mean survival time, dose: 400.0 mg/kg/injection, schedule: Q01DX009 (ip), vehicle: Klucel (hydroxypropylcellulose) (HPC)
# [11] = endpoint: mean survival time, dose: 400.0 mg/kg/injection, schedule: Q04DX003 (ip), vehicle: Klucel (hydroxypropylcellulose) (HPC)
smiles,measurement,setting,value
CC1=NN(c2ccccc2)C(=O)C1N=Nc1ccc(S(N)(=O)=O)cc1 (stereo unspecified),T/C,[1],95 % of control
same,T/C,[2],93 % of control
same,T/C,[3],93 % of control
O=c1cc(CO)[nH]nc1CO,T/C,"endpoint: mean survival time, dose: 100.0 mg/kg/injection, schedule: Q01DX009 (ip), vehicle: saline",97 % of control
same,T/C,"endpoint: mean survival time, dose: 100.0 mg/kg/injection, schedule: Q04DX003 (ip), vehicle: saline",101 % of control
same,T/C,"endpoint: mean survival time, dose: 200.0 mg/kg/injection, schedule: Q01DX009 (ip), vehicle: saline",97 % of control
same,T/C,"endpoint: mean survival time, dose: 200.0 mg/kg/injection, schedule: Q04DX003 (ip), vehicle: saline",106 % of control
same,T/C,"endpoint: mean survival time, dose: 400.0 mg/kg/injection, schedule: Q01DX009 (ip), vehicle: saline",97 % of control
same,T/C,"endpoint: mean survival time, dose: 400.0 mg/kg/injection, schedule: Q04DX003 (ip), vehicle: saline",103 % of control
CCC(C)N(C)/N=N/c1nc[nH]c1C(N)=O (stereo unspecified),T/C,"endpoint: mean survival time, dose: 11.0 mg/kg/injection, schedule: Q01DX009 (ip), vehicle: Klucel (hydroxypropylcellulose) (HPC)",110 % of control
same,T/C,"endpoint: mean survival time, dose: 16.7 mg/kg/injection, schedule: Q01DX009 (ip), vehicle: Klucel (hydroxypropylcellulose) (HPC)",123 % of control
same,T/C,"endpoint: mean survival time, dose: 16.8 mg/kg/injection, schedule: Q01DX009 (ip), vehicle: Klucel (hydroxypropylcellulose) (HPC)",124 % of control
same,T/C,"endpoint: mean survival time, dose: 25.0 mg/kg/injection, schedule: Q01DX009 (ip), vehicle: Klucel (hydroxypropylcellulose) (HPC)",124 % of control
same,T/C,"endpoint: mean survival time, dose: 25.0 mg/kg/injection, schedule: Q04DX003 (ip), vehicle: water",121 % of control
same,T/C,"endpoint: mean survival time, dose: 38.0 mg/kg/injection, schedule: Q01DX009 (ip), vehicle: Klucel (hydroxypropylcellulose) (HPC)",159 % of control
same,T/C,"endpoint: mean survival time, dose: 50.0 mg/kg/injection, schedule: Q01DX001 (ip), vehicle: water",101 % of control
same,T/C,"endpoint: mean survival time, dose: 50.0 mg/kg/injection, schedule: Q01DX009 (ip), vehicle: water",154 % of control
same,T/C,"endpoint: mean survival time, dose: 50.0 mg/kg/injection, schedule: Q04DX003 (ip), vehicle: water",106 % of control
same,T/C,"endpoint: mean survival time, dose: 58.0 mg/kg/injection, schedule: Q01DX009 (ip), vehicle: Klucel (hydroxypropylcellulose) (HPC)",159 % of control
same,T/C,"endpoint: mean survival time, dose: 88.0 mg/kg/injection, schedule: Q01DX009 (ip), vehicle: Klucel (hydroxypropylcellulose) (HPC)",150 % of control and 186 % of control
same,T/C,"endpoint: mean survival time, dose: 100.0 mg/kg/injection, schedule: Q01DX001 (ip), vehicle: water",110 % of control
same,T/C,"endpoint: mean survival time, dose: 100.0 mg/kg/injection, schedule: Q01DX009 (ip), vehicle: water",120 % of control
same,T/C,"endpoint: mean survival time, dose: 100.0 mg/kg/injection, schedule: Q04DX003 (ip), vehicle: water",110 % of control
same,T/C,"endpoint: mean survival time, dose: 133.0 mg/kg/injection, schedule: Q01DX009 (ip), vehicle: Klucel (hydroxypropylcellulose) (HPC)",106 % of control
same,T/C,"endpoint: mean survival time, dose: 133.0 mg/kg/injection, schedule: Q04DX003 (ip), vehicle: saline with Tween-80",116 % of control and 124 % of control
same,T/C,"endpoint: mean survival time, dose: 200.0 mg/kg/injection, schedule: Q01DX001 (ip), vehicle: water",109 % of control
same,T/C,[4],121 % of control
same,T/C,"endpoint: mean survival time, dose: 200.0 mg/kg/injection, schedule: Q04DX003 (ip), vehicle: water",106 % of control
same,T/C,"endpoint: mean survival time, dose: 300.0 mg/kg/injection, schedule: Q04DX003 (ip), vehicle: saline with Tween-80",157 % of control
same,T/C,"endpoint: mean survival time, dose: 400.0 mg/kg/injection, schedule: Q04DX003 (ip), vehicle: water",94 % of control
same,T/C,"endpoint: median survival time, dose: 25.0 mg/kg/injection, schedule: Q01DX009 (ip), vehicle: Klucel (hydroxypropylcellulose) (HPC)",115 % of control
same,T/C,"endpoint: median survival time, dose: 50.0 mg/kg/injection, schedule: Q01DX009 (ip), vehicle: Klucel (hydroxypropylcellulose) (HPC)",155 % of control
same,T/C,"endpoint: median survival time, dose: 75.0 mg/kg/injection, schedule: Q01DX009 (ip), vehicle: Klucel (hydroxypropylcellulose) (HPC)",155 % of control
same,T/C,"endpoint: median survival time, dose: 100.0 mg/kg/injection, schedule: Q01DX009 (ip), vehicle: Klucel (hydroxypropylcellulose) (HPC)",155 % of control
same,T/C,"endpoint: median survival time, dose: 100.0 mg/kg/injection, schedule: Q04DX003 (ip), vehicle: Klucel (hydroxypropylcellulose) (HPC)",110 % of control
same,T/C,"endpoint: median survival time, dose: 200.0 mg/kg/injection, schedule: Q04DX003 (ip), vehicle: Klucel (hydroxypropylcellulose) (HPC)",120 % of control
same,T/C,"endpoint: median survival time, dose: 300.0 mg/kg/injection, schedule: Q04DX003 (ip), vehicle: Klucel (hydroxypropylcellulose) (HPC)",120 % of control
same,T/C,"endpoint: median survival time, dose: 400.0 mg/kg/injection, schedule: Q04DX003 (ip), vehicle: Klucel (hydroxypropylcellulose) (HPC)",100 % of control
Cc1ccc(CC(=O)N2CCOCC2)cc1,T/C,[1],106 % of control
same,T/C,[2],97 % of control
same,T/C,[3],92 % of control
Cc1c(C)c(O)c(Br)c(C)c1O (tested in a mixture with another compound),T/C,[5],89 % of control
Clc1[nH]cnc1Br,T/C,[5],107 % of control
same,T/C,[4],93 % of control
same,T/C,"endpoint: mean survival time, dose: 400.0 mg/kg/injection, schedule: Q04DX003 (ip), vehicle: saline with Tween-80",104 % of control
OC(c1ccc(Cl)cc1)c1ccc(Cl)cc1,T/C,"endpoint: mean survival time, dose: 75.0 mg/kg/injection, schedule: Q01DX001 (ip), vehicle: acetone",97 % of control
same,T/C,"endpoint: mean survival time, dose: 150.0 mg/kg/injection, schedule: Q01DX001 (ip), vehicle: acetone",97 % of control
same,T/C,"endpoint: mean survival time, dose: 300.0 mg/kg/injection, schedule: Q01DX001 (ip), vehicle: acetone",94 % of control
Cc1cccc2c(C(=O)O)cc(-c3ccc(Cl)cc3)nc12,T/C,"endpoint: mean survival time, dose: 50.0 mg/kg/injection, schedule: Q01DX009 (ip), vehicle: saline with Tween-80",91 % of control
CN(C)c1ccc(C=C(Cl)Cl)cc1,T/C,"endpoint: mean survival time, dose: 50.0 mg/kg/injection, schedule: Q01DX005 (ip), vehicle: other",108 % of control
same,T/C,"endpoint: mean survival time, dose: 50.0 mg/kg/injection, schedule: Q01DX009 (ip), vehicle: other",96 % of control
same,T/C,"endpoint: mean survival time, dose: 100.0 mg/kg/injection, schedule: Q01DX005 (ip), vehicle: other",108 % of control
same,T/C,"endpoint: mean survival time, dose: 100.0 mg/kg/injection, schedule: Q01DX009 (ip), vehicle: other",107 % of control
same,T/C,"endpoint: mean survival time, dose: 200.0 mg/kg/injection, schedule: Q01DX005 (ip), vehicle: other",112 % of control
same,T/C,"endpoint: mean survival time, dose: 200.0 mg/kg/injection, schedule: Q01DX009 (ip), vehicle: other",100 % of control
Cc1ccc(NC(=O)c2ccc(Cl)cc2)cc1Cl,T/C,[6],105 % of control
same,T/C,[7],94 % of control
same,T/C,[8],98 % of control
same,T/C,[9],94 % of control
same,T/C,[10],92 % of control
same,T/C,[11],104 % of control
CC1(C)C2CC3C(=CCCC3C#N)C1C2 (stereo unspecified),T/C,[6],105 % of control
same,T/C,[7],97 % of control
same,T/C,[8],97 % of control
same,T/C,[9],95 % of control
same,T/C,[10],103 % of control
same,T/C,[11],92 % of control
O=Nc1ccc(C=C2C(=O)C=CC2=O)cc1,T/C,"endpoint: mean survival time, dose: 75.0 mg/kg/injection, schedule: Q01DX001 (ip), vehicle: saline",100 % of control
same,T/C,"endpoint: mean survival time, dose: 150.0 mg/kg/injection, schedule: Q01DX001 (ip), vehicle: saline",94 % of control
same,T/C,"endpoint: mean survival time, dose: 300.0 mg/kg/injection, schedule: Q01DX001 (ip), vehicle: saline",101 % of control
Cn1c(N)c(C(C[N+](=O)[O-])c2ccccc2)c(=O)n(C)c1=O (stereo unspecified),T/C,"endpoint: mean survival time, dose: 50.0 mg/kg/injection, schedule: Q01DX009 (ip), vehicle: Klucel (hydroxypropylcellulose) (HPC)",95 % of control
same,T/C,[6],92 % of control
same,T/C,[8],98 % of control
Oc1ccccc1OB(Oc1ccccc1O)N(CCCl)CCCl,T/C,"endpoint: mean survival time, dose: 100.0 mg/kg/injection, schedule: Q01DX001 (ip), vehicle: other",111 % of control
CC(=O)Cc1cc(C)nc(/N=C(\N)N2CCOCC2)n1,T/C,"endpoint: mean survival time, dose: 100.0 mg/kg/injection, schedule: Q04DX002 (ip), vehicle: Klucel (hydroxypropylcellulose) (HPC)",100 % of control
same,T/C,"endpoint: mean survival time, dose: 200.0 mg/kg/injection, schedule: Q04DX002 (ip), vehicle: Klucel (hydroxypropylcellulose) (HPC)",92 % of control
same,T/C,"endpoint: mean survival time, dose: 400.0 mg/kg/injection, schedule: Q04DX002 (ip), vehicle: Klucel (hydroxypropylcellulose) (HPC)",88 % of control
c1ccc(-c2oc3ccc4ccccc4c3c2-c2ccc(OCCN3CCCC3)cc2)cc1,T/C,"endpoint: mean survival time, dose: 10.0 mg/kg/injection, schedule: Q01DX009 (ip), vehicle: Klucel (hydroxypropylcellulose) (HPC)",102 % of control
same,T/C,"endpoint: mean survival time, dose: 20.0 mg/kg/injection, schedule: Q01DX009 (ip), vehicle: Klucel (hydroxypropylcellulose) (HPC)",101 % of control
same,T/C,"endpoint: mean survival time, dose: 40.0 mg/kg/injection, schedule: Q01DX009 (ip), vehicle: Klucel (hydroxypropylcellulose) (HPC)",101 % of control
same,T/C,"endpoint: mean survival time, dose: 80.0 mg/kg/injection, schedule: Q01DX009 (ip), vehicle: Klucel (hydroxypropylcellulose) (HPC)",101 % of control
